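Grown in 96-well plates, cells were treated for 48 hours with each compound at five concentrations. Insufficient inhibition: endpoint recorded as highest concentration tested. GI50 is the concentration that inhibits growth by half. At the TGI there is no net growth.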
How the values were obtained:
Assay in all cases: growth of human tumour cells (NCI), 48 h
A549 NSCLC = test system: A549 NSCLC
CCRF-CEM leukemia = test system: CCRF-CEM leukemia
HCT-116 colon = test system: HCT-116 colon
NCI-H226 lung = test system: NCI-H226 lung
NCI-H460 lung = test system: NCI-H460 lung
NCI-H522 lung = test system: NCI-H522 lung
OVCAR-3 ovarian = test system: OVCAR-3 ovarian
OVCAR-8 ovarian = test system: OVCAR-8 ovarian
SK-MEL-2 melanoma = test system: SK-MEL-2 melanoma
SN12C renal = test system: SN12C renal

Compound	TGI (A549 NSCLC) [µM]	TGI (CCRF-CEM leukemia) [µM]	TGI (HCT-116 colon) [µM]	TGI (NCI-H226 lung) [µM]	TGI (NCI-H460 lung) [µM]	TGI (NCI-H522 lung) [µM]	TGI (OVCAR-3 ovarian) [µM]	TGI (OVCAR-8 ovarian) [µM]	TGI (SK-MEL-2 melanoma) [µM]	TGI (SN12C renal) [µM]	GI50 (A549 NSCLC) [µM]	GI50 (CCRF-CEM leukemia) [µM]	GI50 (HCT-116 colon) [µM]	GI50 (NCI-H226 lung) [µM]	GI50 (NCI-H460 lung) [µM]	GI50 (NCI-H522 lung) [µM]	GI50 (OVCAR-3 ovarian) [µM]	GI50 (OVCAR-8 ovarian) [µM]	GI50 (SK-MEL-2 melanoma) [µM]	GI50 (SN12C renal) [µM]
C=CCSSCC=C	> 100	> 100	> 100	> 92.6	> 100	> 100	> 100	> 74.4	> 100	> 86.9										
COc1ccc(NC(=S)N/N=C(\C)c2nc3ncccc3[nH]2)cc1	> 100	24.5	24.8	21.7	37.9	37.5	6.9	63.3	> 100	> 100										
O=C1OC2CC=CC1C2 (configuration not stated)	> 100	> 100	> 100	> 100	> 100	> 100	> 100	> 100	> 100	> 100										
CC(C)(C)c1ccc(/C=N/NC(=O)CSCC(=O)N/N=C/c2ccc(C(C)(C)C)cc2)cc1	11.6			4.93	15	21.9		6.49	5.72	4.82										
O=C(COc1ccc(Cl)c(Cl)c1)N(Cc1ccccc1)Cc1ccc[n+](Cc2ccc(Cl)cc2S(=O)(=O)F)c1	> 100		> 100	> 100	> 100	> 100	> 100	> 100	70.1	> 100										
O=C1CCCC2C3CC(CN12)C1CCCCN1C3 (configuration not stated)	> 100	> 100	> 100	> 100	> 100	> 100	> 100	> 100	> 100	> 100										
C=C1C(=O)OC2CC1CCC1(C)OC1CCC(C)=CCCC2(C)O (configuration not stated)	26.9	4.56	8.7	9.17	7.85	3.69	9.3	7.78	14.2	11.6										
CN1CC(CNC(=O)OCc2ccccc2)CC2c3cccc4c3c(cn4C)CC21 (configuration not stated)	5.24	7.81	4.18	9.06	3.55	3.33	7.79	3.51	3.45	11.3	2.22	2.48	1.72	2.82	1.83	1.73	2.63	1.75	1.88	2.86
Cc1cc(C)nc(SCCc2cccc[n+]2C)n1	> 100	> 100	> 100	> 100	> 100	> 100	> 100	> 100		> 100										
CC(=O)NNC(=O)C1CCCCN1 (configuration not stated)	> 100	> 100	> 100	> 100	> 100	> 100	> 100	> 100	> 100	> 100										
O=C1OCc2cc3cc4c(cc3c(-c3ccc5c(c3)OCO5)c21)OCO4 (tested in a mixture with another compound)		> 100	13.7	29.3	> 100		21.4	> 100	68	> 100										
Cl/C(=C\C=Nc1ccc(I)cc1)c1ccc2ccccc2c1	> 100	> 25.1	33.2	> 59.7	> 79.4	> 100	30.9	41.3	56.1	40.6										
CC[C@]12C=CCN3CC[C@@]4(c5cc(Br)c(OC)cc5N(C)[C@H]4[C@@](O)(C(=O)N[C@@H](Cc4ccc(O)cc4)C(=O)OC)[C@@H]1O)[C@@H]32	> 100	44	> 100		40.5	54.4	89.7	> 100	60.1	37.9										
